Laboratory results published in PMC5359555, “Mechanistic and structural basis of bioengineered bovine Cathelicidin-5 with optimized therapeutic activity” (Scientific Reports, 2017).
Where “and” joins values, the source holds several entries; their conditions need not be identical. Identical values can stand only once. Where a SMILES comes first, the peptide text is derived from it.

Legend:
[1] = not given; remark: listed apart in the source
[2] = not given; remark: listed apart in the source
[3] = tested on: Plasmodium falciparum strain 3D7; test: microbe, parasite or virus in culture; assay type: cell-based; conditions: for antimalarial activity (in words): at 10 and 30 μM
Method: Plasmodium falciparum strain 3D7 was cultured in RPMI-1640 supplemented with 25 mg/l L-Glutamine; HEPES, NaHCO3; 50 mg/l Hypoxanthin; Gentamicien; 10% human serum; and RBCs at 3% hematocrit in an atmosphere of 5% CO2, 5% O2, and 90% N2 at 37°C as previously described. The Plasmodium lactate dehydrogenase (pLDH) assay was performed to measure the parasitic growth inhibition as described elsewhere[49] with BMAP-28 and its analogues treatment. In brief, malstat reagent was added to a 96-well plate (100 μL in each well). A Plasmodium infected RBC mixture of 20 μL in each well was mixed thoroughly using a plate shaker. And then 10 μL of each 1 mg/ml diaphorase and Nitroblue tetrozolium (NBT) were added to each well. The solution in the 96-well plate was mixed properly until a brown color appears and the absorbance was measured at 650 nm under a plate reader (PowerWaveHT, BioTek Instruments, USA). The hemolytic assay was carried out as described earlier. Briefly, RBCs prepared from fresh blood (Hematocrit ~5%) were incubated for 1 h at 37 °C after addition of test peptides. Relative hemoglobin concentration in supernatants after centrifugation at 2000× g for 5 min was monitored by measuring the absorbance at 540 nm by the plate reader (PowerWaveHT, BioTek Instruments, USA). As positive control, 100% hemolysis was taken from samples in which 2% Triton X-100 was added.

[4] = tested on: Gram-positive and Gram-negative strains (E. coli BL21, Bacillus subtilis, Staphylococcus epidermis); assay type: cell-based; conditions: even at one order higher concentration than MIC ~2 μM
Method: The Escherichia coli strains BL21 and DH5α were obtained from Novagen and Takara Clontech, respectively. The Bacillus subtilis (3009) and Staphylococcus epidermis (12993) were purchased from NITE Biological Resource Center (NBRC, Japan). The bacterial growth procedures followed in this study were described elsewhere. The mid-log phase microbial growth (~4 × 10^7 cells/mL, 5 μL) was used for growth assay in a 96-well plate (5 replicates) at a variable peptide concentration incubated at 37 °C for 12–48 h.

B-cell lymphoma (Ramos) = assay type: cell-based; conditions: at a concentration higher than 30 μM
Method: The T-cell lymphoma (Jurkat) and B-cell lymphoma (Ramos) were cultured using RPMI-1640 medium supplemented with 10% fetal calf serum (FCS), 100 U ml^−1 penicillin and 100 μg ml^−1 streptomycin. An initial cell densities of 5 × 10^3 cells/well was uniformly maintained in a 96 well plate. The B16-F1 melanoma cells were grown in DMEM medium containing 10% FCS, 100 U ml^−1 penicillin and 100 μg ml^−1 streptomycin and 55 μM 2-mercaptoethanol. The cells were trypsinized and plated in a 96-well plate at a density of 5 × 10^3 cells/well. The cells were grown overnight at 37 °C using a 5% CO2 incubator. The cells were treated with different peptide concentration followed by cell proliferation assay. […] Fresh culture medium and cells in medium without peptide were considered as negative and positive controls for viability assay and was monitored at 24, 48 and 72 h. The Cayman MTT cell proliferation assay protocol was followed, and the absorbance were recorded at 570 nm using a microplate reader (PowerWaveHT, BioTek Instruments, USA).

B16-F1 melanoma cells = test: MTT cell-viability assay, B16-F1 melanoma; assay type: cell-based, mouse
Method: The T-cell lymphoma (Jurkat) and B-cell lymphoma (Ramos) were cultured using RPMI-1640 medium supplemented with 10% fetal calf serum (FCS), 100 U ml^−1 penicillin and 100 μg ml^−1 streptomycin. An initial cell densities of 5 × 10^3 cells/well was uniformly maintained in a 96 well plate. The B16-F1 melanoma cells were grown in DMEM medium containing 10% FCS, 100 U ml^−1 penicillin and 100 μg ml^−1 streptomycin and 55 μM 2-mercaptoethanol. The cells were trypsinized and plated in a 96-well plate at a density of 5 × 10^3 cells/well. The cells were grown overnight at 37 °C using a 5% CO2 incubator. The cells were treated with different peptide concentration followed by cell proliferation assay. The MTT assay kit (Cayman chemicals, USA) was used to measure the cell viability at a peptide concentration varying from 2 to 15 μM (in triplicate). Fresh culture medium and cells in medium without peptide were considered as negative and positive controls for viability assay and was monitored at 24, 48 and 72 h. The Cayman MTT cell proliferation assay protocol was followed, and the absorbance were recorded at 570 nm using a microplate reader (PowerWaveHT, BioTek Instruments, USA).

Structure (SMILES)	antimicrobial activity (in words) [4]	antimalarial activity (in words) [3]	anticancer activity (in words) (B-cell lymphoma (Ramos))	other results
CC[C@H](C)[C@H](NC(=O)[C@H](CCCNC(=N)N)NC(=O)[C@@H](NC(=O)[C@@H](NC(=O)[C@@H]1CCCN1C(=O)[C@@H](NC(=O)[C@@H](NC(=O)[C@@H](NC(=O)[C@@H]1CCCN1C(=O)CNC(=O)[C@H](Cc1ccc(O)cc1)NC(=O)[C@H](CCCCN)NC(=O)[C@H](CCCCN)NC(=O)[C@H](Cc1c[nH]c2ccccc12)NC(=O)[C@H](C)NC(=O)[C@H](CCCNC(=N)N)NC(=O)[C@H](CC(C)C)NC(=O)[C@@H](NC(=O)[C@H](CCCCN)NC(=O)[C@H](CCCNC(=N)N)NC(=O)CNC(=O)[C@H](CC(C)C)NC(=O)[C@H](CO)NC(=O)[C@H](CCCNC(=N)N)NC(=O)[C@H](CC(C)C)NC(=O)CNC(=O)CN)[C@@H](C)CC)[C@@H](C)CC)[C@@H](C)CC)C(C)C)[C@@H](C)CC)[C@@H](C)CC)C(=O)NCC(=O)O (H-GGLRSLGRKILRAWKKYGPIIVPIIRIG-OH)				α content: 11.1% and 11.9%; β content [1]: 14.3% and 21.5%; β-sheet content [2]: 7.1% and 25.3% and 7.5%
C[C@@H]1CC[C@H]2[C@@H](C)C(=O)O[C@@H]3O[C@@]4(C)CC[C@@H]1[C@]32OO4 [Art, artemisinin, reference compound]				inhibition at 5 µM ([3]; Plasmodium falciparum, 3D7, 5 μM, positive control, pLDH assay, read-out: growth inhibition (%) of P. falciparum): 100%
CC(C)C[C@H](NC(=O)CNC(=O)CN)C(=O)N[C@@H](CCCNC(=N)N)C(=O)N[C@@H](CO)C(=O)N[C@@H](CC(C)C)C(=O)NCC(=O)N[C@@H](CCCNC(=N)N)C(=O)N[C@@H](CCCCN)C(=O)N[C@@H](C)C(=O)N[C@@H](C)C(=O)N[C@@H](CCCNC(=N)N)C(=O)N[C@@H](C)C(=O)N[C@@H](Cc1c[nH]c2ccccc12)C(=O)N[C@@H](CCCCN)C(=O)N[C@@H](CCCCN)C(=O)N[C@@H](Cc1ccc(O)cc1)C(=O)NCC(N)=O [Syn2] (H-GGLRSLGRKAARAWKKYG-NH2; N-terminus assumed)	loss of activity	very low potentiality	loss-of activity	
CC[C@H](C)[C@H](NC(=O)[C@H](CCCCN)NC(=O)[C@H](CCCNC(=N)N)NC(=O)CNC(=O)[C@H](CC(C)C)NC(=O)[C@H](CO)NC(=O)[C@H](CCCNC(=N)N)NC(=O)[C@H](CC(C)C)NC(=O)CNC(=O)CN)C(=O)N[C@@H](CC(C)C)C(=O)N[C@@H](CCCNC(=N)N)C(=O)N[C@@H](C)C(=O)N[C@@H](Cc1c[nH]c2ccccc12)C(=O)N[C@@H](CCCCN)C(=O)N[C@@H](CCCCN)C(=O)N[C@@H](Cc1ccc(O)cc1)C(=O)NCC(N)=O [BMAP-28_1–18] (H-GGLRSLGRKILRAWKKYG-NH2; N-terminus assumed)				concentration found to be active (B16-F1 melanoma cells): ~ 30 μM; anticancer activity (in words) (B16-F1 melanoma cells; 10 μM): fairly low anticancer activity
CC[C@H](C)[C@H](NC(=O)[C@H](CCCCN)NC(=O)[C@H](CCCNC(=N)N)NC(=O)CN)C(=O)N[C@@H](CC(C)C)C(=O)N[C@@H](CCCNC(=N)N)C(=O)N[C@@H](C)C(=O)N[C@@H](Cc1c[nH]c2ccccc12)C(=O)N[C@@H](CCCCN)C(=O)N[C@@H](CCCCN)C(=O)N[C@@H](Cc1ccc(O)cc1)C(=O)NCC(N)=O [Syn3] (H-GRKILRAWKKYG-NH2; N-terminus assumed)	loss of activity	very low potentiality	loss-of activity	
